According to PMC4664966, “Discovery and characterization of novel inhibitors of the sodium-coupled citrate transporter (NaCT or SLC13A5)” (Scientific Reports, 2015):

Legend:
HEK-293 parental cells = assay: Intracellular concentration of compound in HEK-293 parental cells; type: in vitro ADME, human; conditions: 1 hour incubation; data not shown
human hepatocytes = assay: U-[13C]-citrate uptake and incorporation into TCA cycle intermediates in human hepatocytes; type: cell-based; conditions: 500 μM U-[13C]-citrate, 30 μM compound
Procedure: Primary hepatocytes were given the indicated substrates (compound and labeled citrate) under the same conditions used to generate the IC50 curves. Incubations were stopped by rapidly removing culture media and adding 80% methanol pre-cooled in dry ice. Cellular debris was removed by centrifugation and samples dried by Speedvac. Dried cell extracts were then re-dissolved in 100 μL HPLC-grade water. Citrate uptake was analyzed by injecting a 10 μL aliquot of sample onto an Imtakt UK-Phenyl (2.1 mm × 150 mm) column (Imtakt USA, Philadelphia, PA, USA) using a Waters Acquity UPLC system (Waters Corp., Milford, MA, USA) coupled to a Thermo Q-Exactive mass spectrometer (Thermo Corp., San Jose, CA, USA). […] Metabolites were monitored using negative ion electrospray, ESI(-), in full scan mode with a resolution of 70,000 FWHM calibrated to mass accuracy <2 ppm. […] Citrate transport was determined through enrichment of ^13C6-citrate into the intracellular pool of citrate as determined by the percent ^13C6-citrate in the total pool. Fate of citrate carbon through one turn of the TCA cycle was analyzed by comparing percent labeling into the respective pools of ^13C4-fumarate, ^13C4-malate, and ^13C4-glutamate. Thermo LCQuan (Thermo Corp, San Jose, CA, USA) was used to extract out exact mass using a 5 ppm window at the calculated accurate mass for each metabolite and its isotopomer. […]

HEKNaCT cells = assay: OCR and ECAR measurements in HEKNaCT cells incubated with citrate (Seahorse); type: cell-based, human; conditions: 30 μM compound
Procedure: HEKNaCT cells were plated at 12,000 cells/well onto a poly-d-lysine coated XF96 plate (Sigma, Seahorse Biosciences). Cells were plated in culture media containing HG DMEM, 10% FBS, 2 mM glutamine, 1 mM pyruvate, 0.5 mg/mL Geneticin, and 1% penicillin/streptomycin (Life Technologies) and incubated overnight at 37 °C. The following day, the media was changed to Seahorse Biosciences assay medium (Seahorse Biosciences) supplemented with 10 mM glucose and 2 mM pyruvate (Sigma). The plate was pre-incubated for 1 hour in a 37 °C air incubator. […]

[1] = biological target: Angiotensin-converting enzyme 1 (ACE1) (Homo sapiens, UniProt P12821); assay: Selectivity data (Table S1); type: biochemical
Sequence of Angiotensin-converting enzyme 1 (ACE1) (P12821 30-1306): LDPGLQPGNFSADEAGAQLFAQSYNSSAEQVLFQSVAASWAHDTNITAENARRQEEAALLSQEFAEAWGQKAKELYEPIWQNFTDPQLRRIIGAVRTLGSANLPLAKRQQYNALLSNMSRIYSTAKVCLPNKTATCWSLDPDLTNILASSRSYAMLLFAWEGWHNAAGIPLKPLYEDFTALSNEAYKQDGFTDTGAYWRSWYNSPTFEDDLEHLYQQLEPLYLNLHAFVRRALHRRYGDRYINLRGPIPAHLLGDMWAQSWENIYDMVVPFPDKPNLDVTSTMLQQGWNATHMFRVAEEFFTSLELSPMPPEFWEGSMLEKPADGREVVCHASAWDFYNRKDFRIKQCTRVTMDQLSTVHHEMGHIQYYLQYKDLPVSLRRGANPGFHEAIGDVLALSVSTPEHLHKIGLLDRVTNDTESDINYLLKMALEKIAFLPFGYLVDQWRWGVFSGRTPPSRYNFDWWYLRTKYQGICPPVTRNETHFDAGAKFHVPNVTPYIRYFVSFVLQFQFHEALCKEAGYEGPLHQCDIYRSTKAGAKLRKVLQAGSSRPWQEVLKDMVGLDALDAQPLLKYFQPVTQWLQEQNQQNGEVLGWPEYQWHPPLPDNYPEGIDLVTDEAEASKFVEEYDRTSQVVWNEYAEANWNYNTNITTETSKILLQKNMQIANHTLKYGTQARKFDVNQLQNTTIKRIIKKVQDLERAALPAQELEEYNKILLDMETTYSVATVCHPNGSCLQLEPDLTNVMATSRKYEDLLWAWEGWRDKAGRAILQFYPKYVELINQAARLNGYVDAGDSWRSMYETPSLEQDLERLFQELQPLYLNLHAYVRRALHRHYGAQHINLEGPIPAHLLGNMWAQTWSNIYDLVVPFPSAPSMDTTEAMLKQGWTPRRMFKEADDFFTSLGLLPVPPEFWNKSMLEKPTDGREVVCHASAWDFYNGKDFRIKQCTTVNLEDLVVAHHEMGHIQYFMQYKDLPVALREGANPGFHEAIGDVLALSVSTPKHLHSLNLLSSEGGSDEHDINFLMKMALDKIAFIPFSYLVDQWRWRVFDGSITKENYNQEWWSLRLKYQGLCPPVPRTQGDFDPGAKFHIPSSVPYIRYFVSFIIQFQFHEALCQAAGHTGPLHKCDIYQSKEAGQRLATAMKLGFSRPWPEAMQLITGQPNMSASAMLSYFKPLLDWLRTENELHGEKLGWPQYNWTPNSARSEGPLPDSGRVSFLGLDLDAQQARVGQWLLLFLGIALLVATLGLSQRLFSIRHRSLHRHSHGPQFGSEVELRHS

[2] = biological target: Diacylglycerol acyltransferase 2 (DGAT2) (Homo sapiens, UniProt Q96PD7); assay: Selectivity data (Table S1); type: biochemical
Sequence of Diacylglycerol acyltransferase 2 (DGAT2) (Q96PD7 whole entry, species assumed): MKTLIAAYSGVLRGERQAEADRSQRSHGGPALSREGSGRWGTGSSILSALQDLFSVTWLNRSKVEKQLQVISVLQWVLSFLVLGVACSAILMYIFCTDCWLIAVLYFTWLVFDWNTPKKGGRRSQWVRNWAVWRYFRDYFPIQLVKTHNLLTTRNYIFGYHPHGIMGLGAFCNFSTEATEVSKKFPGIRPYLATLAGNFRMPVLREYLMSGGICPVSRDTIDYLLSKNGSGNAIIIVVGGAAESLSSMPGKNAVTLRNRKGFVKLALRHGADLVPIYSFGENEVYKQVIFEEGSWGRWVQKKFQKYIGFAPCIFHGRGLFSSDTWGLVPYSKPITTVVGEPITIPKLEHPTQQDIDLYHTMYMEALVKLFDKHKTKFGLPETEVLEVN

[3] = biological target: Monoacylglycerol acyltransferase 2 (MGAT2) (Homo sapiens, UniProt Q3SYC2); assay: Selectivity data (Table S1); type: biochemical
Sequence of Monoacylglycerol acyltransferase 2 (MGAT2) (Q3SYC2 whole entry): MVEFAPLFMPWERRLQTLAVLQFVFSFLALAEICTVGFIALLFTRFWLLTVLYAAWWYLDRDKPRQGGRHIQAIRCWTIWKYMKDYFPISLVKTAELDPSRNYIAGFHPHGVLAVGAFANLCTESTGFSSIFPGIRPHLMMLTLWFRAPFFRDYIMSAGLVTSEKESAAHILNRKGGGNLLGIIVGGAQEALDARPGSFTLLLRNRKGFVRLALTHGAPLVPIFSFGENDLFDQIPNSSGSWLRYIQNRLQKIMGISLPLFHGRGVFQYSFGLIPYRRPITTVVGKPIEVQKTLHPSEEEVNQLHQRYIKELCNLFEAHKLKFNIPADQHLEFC

[4] = biological target: Proto-oncogene tyrosine-protein kinase (SRC) (Homo sapiens, UniProt P12931); assay: Selectivity data (Table S1); type: biochemical
Sequence of Proto-oncogene tyrosine-protein kinase (SRC) (P12931 whole entry): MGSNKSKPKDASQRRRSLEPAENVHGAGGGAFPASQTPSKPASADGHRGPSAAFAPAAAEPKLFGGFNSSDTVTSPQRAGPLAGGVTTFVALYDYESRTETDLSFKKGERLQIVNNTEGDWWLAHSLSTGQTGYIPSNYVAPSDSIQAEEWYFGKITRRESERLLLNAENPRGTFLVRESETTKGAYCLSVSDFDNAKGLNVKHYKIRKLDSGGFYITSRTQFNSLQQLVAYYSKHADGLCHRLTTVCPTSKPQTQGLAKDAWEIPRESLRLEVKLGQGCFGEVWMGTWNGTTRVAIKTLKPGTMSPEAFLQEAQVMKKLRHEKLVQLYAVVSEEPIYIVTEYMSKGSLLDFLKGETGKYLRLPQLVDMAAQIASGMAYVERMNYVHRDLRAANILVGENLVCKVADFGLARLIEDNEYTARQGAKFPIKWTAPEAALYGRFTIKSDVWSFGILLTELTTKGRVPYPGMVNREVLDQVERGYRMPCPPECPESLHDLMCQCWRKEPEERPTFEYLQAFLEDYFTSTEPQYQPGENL

Dopamine receptor 1 (D1) = Dopamine receptor 1 (D1) (Homo sapiens, UniProt P21728); assay: Selectivity data (Table S1); type: binding
Endothelin (ETA) = Endothelin (ETA) (Homo sapiens, UniProt P25101); assay: Selectivity data (Table S1); type: binding
Sequence of Endothelin (ETA) (P25101 21-427): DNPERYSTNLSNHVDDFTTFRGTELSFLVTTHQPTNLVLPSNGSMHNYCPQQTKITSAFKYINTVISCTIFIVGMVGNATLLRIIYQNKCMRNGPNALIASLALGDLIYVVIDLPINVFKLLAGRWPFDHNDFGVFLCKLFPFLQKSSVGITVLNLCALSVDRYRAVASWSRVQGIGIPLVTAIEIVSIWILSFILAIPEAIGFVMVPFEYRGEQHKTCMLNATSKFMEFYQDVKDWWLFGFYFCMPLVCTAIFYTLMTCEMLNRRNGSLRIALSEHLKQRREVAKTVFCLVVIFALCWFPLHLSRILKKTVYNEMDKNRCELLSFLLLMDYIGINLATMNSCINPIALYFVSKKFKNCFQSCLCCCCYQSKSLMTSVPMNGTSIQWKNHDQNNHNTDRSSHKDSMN

[5] = biological target: Peroxisome proliferator activated receptor gamma (PPAR-gamma) (Homo sapiens, UniProt P37231); assay: Selectivity data (Table S1); type: binding
Sequence of Peroxisome proliferator activated receptor gamma (PPAR-gamma) (P37231 whole entry): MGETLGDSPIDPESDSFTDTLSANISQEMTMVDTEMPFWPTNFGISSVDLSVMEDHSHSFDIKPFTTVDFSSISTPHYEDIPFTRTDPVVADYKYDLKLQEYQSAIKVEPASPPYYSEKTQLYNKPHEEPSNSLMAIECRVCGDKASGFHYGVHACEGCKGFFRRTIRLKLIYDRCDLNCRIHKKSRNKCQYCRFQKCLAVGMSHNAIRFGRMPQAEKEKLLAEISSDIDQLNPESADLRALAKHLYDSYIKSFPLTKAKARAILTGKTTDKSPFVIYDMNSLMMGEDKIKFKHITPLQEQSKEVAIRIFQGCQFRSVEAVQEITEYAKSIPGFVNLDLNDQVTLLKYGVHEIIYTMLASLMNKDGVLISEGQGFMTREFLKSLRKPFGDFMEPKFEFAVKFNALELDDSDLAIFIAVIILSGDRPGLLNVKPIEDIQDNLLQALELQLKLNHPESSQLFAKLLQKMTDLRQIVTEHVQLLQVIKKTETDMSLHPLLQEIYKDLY

[6] = biological target: Vascular endothelial growth factor receptor 2 (VEGFR-2) (Homo sapiens, UniProt P35968); assay: Selectivity data (Table S1); type: binding
Sequence of Vascular endothelial growth factor receptor 2 (VEGFR-2) (P35968 20-1356): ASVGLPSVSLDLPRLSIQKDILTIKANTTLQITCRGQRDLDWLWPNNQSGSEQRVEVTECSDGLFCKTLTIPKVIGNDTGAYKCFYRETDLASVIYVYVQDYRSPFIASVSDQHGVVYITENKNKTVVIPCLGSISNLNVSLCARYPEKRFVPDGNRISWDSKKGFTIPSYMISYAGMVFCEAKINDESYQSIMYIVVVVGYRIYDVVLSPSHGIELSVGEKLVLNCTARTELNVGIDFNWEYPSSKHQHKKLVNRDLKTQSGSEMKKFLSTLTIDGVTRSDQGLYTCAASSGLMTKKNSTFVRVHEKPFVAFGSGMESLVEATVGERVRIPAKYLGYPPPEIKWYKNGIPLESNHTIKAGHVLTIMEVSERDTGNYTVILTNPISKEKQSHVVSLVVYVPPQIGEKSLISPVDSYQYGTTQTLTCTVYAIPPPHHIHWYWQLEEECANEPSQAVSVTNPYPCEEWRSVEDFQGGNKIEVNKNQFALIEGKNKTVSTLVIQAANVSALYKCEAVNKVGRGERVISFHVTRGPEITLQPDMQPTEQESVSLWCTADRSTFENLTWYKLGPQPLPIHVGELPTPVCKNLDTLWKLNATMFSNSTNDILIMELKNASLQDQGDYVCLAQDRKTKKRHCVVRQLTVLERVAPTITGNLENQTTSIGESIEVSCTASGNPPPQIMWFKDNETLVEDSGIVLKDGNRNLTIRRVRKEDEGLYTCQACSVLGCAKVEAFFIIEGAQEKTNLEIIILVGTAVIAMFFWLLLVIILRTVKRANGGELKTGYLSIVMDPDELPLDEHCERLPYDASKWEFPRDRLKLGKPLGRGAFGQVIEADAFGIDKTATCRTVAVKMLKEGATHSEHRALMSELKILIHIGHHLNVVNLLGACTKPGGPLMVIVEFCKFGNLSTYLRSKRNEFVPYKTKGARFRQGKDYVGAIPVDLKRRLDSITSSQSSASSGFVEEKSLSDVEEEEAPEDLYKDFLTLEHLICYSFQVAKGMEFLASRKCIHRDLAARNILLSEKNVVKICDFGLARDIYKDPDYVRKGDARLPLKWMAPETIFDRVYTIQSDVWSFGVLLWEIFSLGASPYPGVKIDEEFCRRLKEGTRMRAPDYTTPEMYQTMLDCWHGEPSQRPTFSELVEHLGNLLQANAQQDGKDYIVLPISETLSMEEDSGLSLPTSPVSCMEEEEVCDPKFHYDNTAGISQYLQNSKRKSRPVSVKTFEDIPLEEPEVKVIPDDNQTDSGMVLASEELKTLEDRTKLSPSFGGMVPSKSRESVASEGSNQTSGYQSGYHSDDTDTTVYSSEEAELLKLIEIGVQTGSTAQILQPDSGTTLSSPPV

Structure (SMILES): CC(C)(C)c1ccc(CC[C@@](O)(CC(=O)O)C(=O)O)cc1 [Compound 2]
- intracellular level in HEK-293 parental cells (HEK-293 parental cells): not detected at significant levels
- uniform labeling of citrate, malate, glutamate and fumarate from U-[13C]-citrate (human hepatocytes): reduced
- effect on citrate induced increase in oxygen consumption rate (OCR) (HEKNaCT cells): prevented citrate induced increase in mitochondrial respiration
- effect on citrate suppressed extracellular acidification rate (ECAR) (HEKNaCT cells; citrate): restored
- inhibition at 100 µM [1]: < 10%
- IC50 [2]: > 50 µM
- IC50 [3]: > 50 µM
- inhibition at 100 µM [4]: < 10%
- inhibition at 100 µM (Dopamine receptor 1 (D1)): < 10%
- inhibition at 100 µM (Endothelin (ETA)): < 10%
- inhibition at 100 µM [5]: < 10%
- inhibition at 100 µM [6]: < 10%
